Source: ChEMBL document CHEMBL3608278 (J Med Chem, 2015)

How the values were obtained:
[1] = molecular target: T1, Potassium voltage-gated channel subfamily A member 3 (Homo sapiens, UniProt P22001); experiment: cell-based; design: species or system Blood
[2] = molecular target: T1, Potassium voltage-gated channel subfamily A member 3; design: species or system Blood
[3] = molecular target: T1, Potassium voltage-gated channel subfamily A member 3; format: cell-based, CHO-K1

T1 sequence (P22001 whole entry): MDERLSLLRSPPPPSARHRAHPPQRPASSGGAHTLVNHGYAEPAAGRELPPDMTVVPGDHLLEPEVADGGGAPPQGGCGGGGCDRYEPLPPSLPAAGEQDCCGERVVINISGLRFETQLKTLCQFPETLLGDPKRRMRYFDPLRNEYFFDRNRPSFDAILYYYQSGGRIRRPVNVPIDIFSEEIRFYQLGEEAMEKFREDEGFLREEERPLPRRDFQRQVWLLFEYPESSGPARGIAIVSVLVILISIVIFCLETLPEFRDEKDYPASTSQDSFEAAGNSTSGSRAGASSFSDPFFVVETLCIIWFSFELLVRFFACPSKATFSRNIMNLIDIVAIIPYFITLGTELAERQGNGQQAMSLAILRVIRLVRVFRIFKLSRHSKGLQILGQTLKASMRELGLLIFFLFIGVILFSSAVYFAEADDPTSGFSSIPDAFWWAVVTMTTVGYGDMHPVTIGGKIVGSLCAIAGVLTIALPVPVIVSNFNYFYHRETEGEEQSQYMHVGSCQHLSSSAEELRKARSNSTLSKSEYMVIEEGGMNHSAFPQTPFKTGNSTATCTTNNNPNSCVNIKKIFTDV

SMILES | IC50 [1] [nM] | IC50 [2] [nM] | IC50 [3] [nM]
CC[C@H](C)[C@@H]1NC(=O)[C@@H](NC(=O)[C@H](CO)NC(=O)[C@@H](N)CCCNC(=N)N)CSSC[C@@H](C(=O)O)NC(=O)[C@H]([C@@H](C)O)NC(=O)CNC(=O)[C@@H]2CSSC[C@@H]3NC(=O)[C@H](CCC(N)=O)NC(=O)[C@H](Cc4ccccc4)NC(=O)[C@H](C)NC(=O)[C@H]([C@@H](C)O)NC(=O)[C@H](CSSC[C@H](NC(=O)[C@H](Cc4cccc5ccccc45)NC(=O)[C@H](CO)NC(=O)[C@H](CC(C)C)NC(=O)[C@H](CCCNC(=N)N)NC(=O)[C@H](Cc4ccc(O)cc4)NC(=O)[C@H](CCCCN)NC(=O)[C@H](CCSC)NC(=O)[C@H](CO)NC(=O)[C@H](Cc4cnc[nH]4)NC(=O)[C@H](CCCCN)NC3=O)C(=O)N[C@@H](CCCNC(=N)N)C(=O)N[C@@H](CCCCN)C(=O)N[C@@H]([C@@H](C)O)C(=O)N2)NC(=O)[C@H](CCCNC(=N)N)NC(=O)[C@H](CO)NC(=O)[C@H](CCCCN)NC(=O)[C@@H]2CCCN2C(=O)[C@H]([C@@H](C)CC)NC(=O)[C@H]([C@@H](C)O)NC(=O)[C@H](CC(=O)O)NC1=O | 1.07 | 2.84 | 0.223
CC[C@H](C)[C@@H]1NC(=O)[C@@H](NC(=O)[C@H](CO)NC(=O)[C@@H](N)CCCNC(=N)N)CSSC[C@@H](C(=O)O)NC(=O)[C@H]([C@@H](C)O)NC(=O)CNC(=O)[C@@H]2CSSC[C@@H]3NC(=O)[C@H](CCC(N)=O)NC(=O)[C@H](Cc4ccccc4)NC(=O)[C@H](C)NC(=O)[C@H]([C@@H](C)O)NC(=O)[C@H](CSSC[C@H](NC(=O)[C@H](Cc4ccccc4)NC(=O)[C@H](CO)NC(=O)[C@H](CC(C)C)NC(=O)[C@H](CCCNC(=N)N)NC(=O)[C@H](Cc4ccc(O)cc4)NC(=O)[C@H](CCCCN)NC(=O)[C@H](CCSC)NC(=O)[C@H](CO)NC(=O)[C@H](Cc4cnc[nH]4)NC(=O)[C@H](CCCCN)NC3=O)C(=O)N[C@@H](Cc3cccc4ccccc34)C(=O)N[C@@H](CCCCN)C(=O)N[C@@H]([C@@H](C)O)C(=O)N2)NC(=O)[C@H](CCCNC(=N)N)NC(=O)[C@H](CO)NC(=O)[C@H](CCCCN)NC(=O)[C@@H]2CCCN2C(=O)[C@H]([C@@H](C)CC)NC(=O)[C@H]([C@@H](C)O)NC(=O)[C@H](CC(=O)O)NC1=O | 4.72 | 8.08 | > 3.33
CC[C@H](C)[C@@H]1NC(=O)[C@@H](NC(=O)[C@H](CO)NC(=O)[C@@H](N)CCC(=O)O)CSSC[C@@H](C(=O)O)NC(=O)[C@H]([C@@H](C)O)NC(=O)CNC(=O)[C@@H]2CSSC[C@@H]3NC(=O)[C@H](CCC(N)=O)NC(=O)[C@H](Cc4ccccc4)NC(=O)[C@H](C)NC(=O)[C@H]([C@@H](C)O)NC(=O)[C@H](CSSC[C@H](NC(=O)[C@H](Cc4ccccc4)NC(=O)[C@H](CO)NC(=O)[C@H](CC(C)C)NC(=O)[C@H](CCCNC(=N)N)NC(=O)[C@H](Cc4ccc(O)cc4)NC(=O)[C@H](CCCCN)NC(=O)[C@H](CCSC)NC(=O)[C@H](CO)NC(=O)[C@H](Cc4cnc[nH]4)NC(=O)[C@H](CCCCN)NC3=O)C(=O)N[C@@H](CCCNC(=N)N)C(=O)N[C@@H](CCCCN)C(=O)N[C@@H]([C@@H](C)O)C(=O)N2)NC(=O)[C@H](CCCNC(=N)N)NC(=O)[C@H](CO)NC(=O)[C@H](CCCCN)NC(=O)[C@@H]2CCCN2C(=O)[C@H]([C@@H](C)CC)NC(=O)[C@H]([C@@H](C)O)NC(=O)[C@H](CC(=O)O)NC1=O | 0.214 | 0.249 | 0.151
CC[C@H](C)[C@@H]1NC(=O)[C@@H](NC(=O)[C@H](CCC(=O)O)NC(=O)[C@@H](N)CCCNC(=N)N)CSSC[C@@H](C(=O)O)NC(=O)[C@H]([C@@H](C)O)NC(=O)CNC(=O)[C@@H]2CSSC[C@@H]3NC(=O)[C@H](CCC(N)=O)NC(=O)[C@H](Cc4ccccc4)NC(=O)[C@H](C)NC(=O)[C@H]([C@@H](C)O)NC(=O)[C@H](CSSC[C@H](NC(=O)[C@H](Cc4ccccc4)NC(=O)[C@H](CO)NC(=O)[C@H](CC(C)C)NC(=O)[C@H](CCCNC(=N)N)NC(=O)[C@H](Cc4ccc(O)cc4)NC(=O)[C@H](CCCCN)NC(=O)[C@H](CCSC)NC(=O)[C@H](CO)NC(=O)[C@H](Cc4cnc[nH]4)NC(=O)[C@H](CCCCN)NC3=O)C(=O)N[C@@H](CCCNC(=N)N)C(=O)N[C@@H](CCCCN)C(=O)N[C@@H]([C@@H](C)O)C(=O)N2)NC(=O)[C@H](CCCNC(=N)N)NC(=O)[C@H](CO)NC(=O)[C@H](CCCCN)NC(=O)[C@@H]2CCCN2C(=O)[C@H]([C@@H](C)CC)NC(=O)[C@H]([C@@H](C)O)NC(=O)[C@H](CC(=O)O)NC1=O | 0.029 | 0.039 | 0.095
CC[C@H](C)[C@@H]1NC(=O)[C@H]([C@@H](C)O)NC(=O)[C@H](CC(=O)O)NC(=O)[C@H](CCC(=O)O)NC(=O)[C@@H](NC(=O)[C@H](CO)NC(=O)[C@@H](N)CCCNC(=N)N)CSSC[C@@H](C(=O)O)NC(=O)[C@H]([C@@H](C)O)NC(=O)CNC(=O)[C@@H]2CSSC[C@@H]3NC(=O)[C@H](CCC(N)=O)NC(=O)[C@H](Cc4ccccc4)NC(=O)[C@H](C)NC(=O)[C@H]([C@@H](C)O)NC(=O)[C@H](CSSC[C@H](NC(=O)[C@H](Cc4ccccc4)NC(=O)[C@H](CO)NC(=O)[C@H](CC(C)C)NC(=O)[C@H](CCCNC(=N)N)NC(=O)[C@H](Cc4ccc(O)cc4)NC(=O)[C@H](CCCCN)NC(=O)[C@H](CCSC)NC(=O)[C@H](CO)NC(=O)[C@H](Cc4cnc[nH]4)NC(=O)[C@H](CCCCN)NC3=O)C(=O)N[C@@H](CCCNC(=N)N)C(=O)N[C@@H](CCCCN)C(=O)N[C@@H]([C@@H](C)O)C(=O)N2)NC(=O)[C@H](CCCNC(=N)N)NC(=O)[C@H](CO)NC(=O)[C@H](CCCCN)NC(=O)[C@@H]2CCCN2C1=O | 0.031 | 0.05 | 0.075
CC[C@H](C)[C@@H]1NC(=O)[C@@H](NC(=O)[C@H](CO)NC(=O)[C@@H](N)CCCNC(=N)N)CSSC[C@@H](C(=O)O)NC(=O)[C@H]([C@@H](C)O)NC(=O)CNC(=O)[C@@H]2CSSC[C@@H]3NC(=O)[C@H](CCC(N)=O)NC(=O)[C@H](Cc4ccccc4)NC(=O)[C@H](C)NC(=O)[C@H]([C@@H](C)O)NC(=O)[C@H](CSSC[C@H](NC(=O)[C@H](Cc4ccccc4)NC(=O)[C@H](CO)NC(=O)[C@H](CC(C)C)NC(=O)[C@H](CCCNC(=N)N)NC(=O)[C@H](Cc4ccc(O)cc4)NC(=O)[C@H](CCCCN)NC(=O)[C@H](CCSC)NC(=O)[C@H](CO)NC(=O)[C@H](Cc4cnc[nH]4)NC(=O)[C@H](CCCCN)NC3=O)C(=O)N[C@@H](CCCNC(=N)N)C(=O)N[C@@H](CCCCN)C(=O)N[C@@H]([C@@H](C)O)C(=O)N2)NC(=O)[C@H](CCCNC(=N)N)NC(=O)[C@H](CO)NC(=O)[C@H](CCCCN)NC(=O)[C@@H]2CCCN2C(=O)[C@H]([C@@H](C)CC)NC(=O)[C@H]([C@@H](C)O)NC(=O)[C@H](CCC(=O)O)NC1=O | 16.9 | > 24.6 | > 3.33
